Laboratory results published in the kinase profiling compilation of Christmann-Franck et al. (2016).

What was measured:
Experiment in all cases: KINOMEscan competition binding
Details in all cases: compound 1.0 µM
[1] = tested on: ABL1 (human), P00519 [E255K]
ACVR1 (human) = ACVR1 (human) (UniProt Q04771)
ACVRL1 (human) = ACVRL1 (human) (UniProt P37023)
BTK (human) = BTK (human) (UniProt Q06187)
CAMK2D (human) = CAMK2D (human) (UniProt Q13557)
CDC42BPA (human) = CDC42BPA (human) (UniProt Q5VT25)
CDK7 (human) = CDK7 (human) (UniProt P50613)
CDK8 (human) = CDK8 (human) (UniProt P49336)
CLK2 (human) = CLK2 (human) (UniProt P49760)
CRK2 (P.falciparum) = CRK2 (P.falciparum) (UniProt P61075)
DCLK3 (human) = DCLK3 (human) (UniProt Q9C098)
[2] = tested on: FLT3 (human), P36888 [ITD]
HIPK1 (human) = HIPK1 (human) (UniProt Q86Z02)
IRAK4 (human) = IRAK4 (human) (UniProt Q9NWZ3)
[3] = molecular target: JAK1 JH2 pseudokinase (human) (UniProt P23458)
[4] = molecular target: JAK2 JH1 catalytic (human) (UniProt O60674)
[5] = tested on: KIT (human), P10721 [V559D]
MAP3K4 (human) = MAP3K4 (human) (UniProt Q9Y6R4)
MAP3K6 (human) = MAP3K6 (human) (UniProt O95382)
MAPK11 (human) = MAPK11 (human) (UniProt Q15759)
MAPK15 (human) = MAPK15 (human) (UniProt Q8TD08)
MAPK7 (human) = MAPK7 (human) (UniProt Q13164)
MAPKAPK5 (human) = MAPKAPK5 (human) (UniProt Q8IW41)
MTOR (human) = MTOR (human) (UniProt P42345)
NEK3 (human) = NEK3 (human) (UniProt P51956)
PIK3CA (human) = PIK3CA (human) (UniProt P42336)
[6] = tested on: PIK3CA (human), P42336 [Q546K]
PIP5K1C (human) = PIP5K1C (human) (UniProt O60331)
PLK1 (human) = PLK1 (human) (UniProt P53350)
PLK3 (human) = PLK3 (human) (UniProt Q9H4B4)
PRKCH (human) = PRKCH (human) (UniProt P24723)
[7] = tested on: RET (human), P07949 [V804L]
RIOK3 (human) = RIOK3 (human) (UniProt O14730)
RIPK1 (human) = RIPK1 (human) (UniProt Q13546)
RPS6KA5 KD1 (human) = RPS6KA5 KD1 (human) (UniProt O75582)
RPS6KA6 KD1 (human) = RPS6KA6 KD1 (human) (UniProt Q9UK32)
SIK2 (human) = SIK2 (human) (UniProt Q9H0K1)
SRMS (human) = SRMS (human) (UniProt Q9H3Y6)
TGFBR2 (human) = TGFBR2 (human) (UniProt P37173)

Sequence of PRKCH (human) (P24723 whole entry, looked up): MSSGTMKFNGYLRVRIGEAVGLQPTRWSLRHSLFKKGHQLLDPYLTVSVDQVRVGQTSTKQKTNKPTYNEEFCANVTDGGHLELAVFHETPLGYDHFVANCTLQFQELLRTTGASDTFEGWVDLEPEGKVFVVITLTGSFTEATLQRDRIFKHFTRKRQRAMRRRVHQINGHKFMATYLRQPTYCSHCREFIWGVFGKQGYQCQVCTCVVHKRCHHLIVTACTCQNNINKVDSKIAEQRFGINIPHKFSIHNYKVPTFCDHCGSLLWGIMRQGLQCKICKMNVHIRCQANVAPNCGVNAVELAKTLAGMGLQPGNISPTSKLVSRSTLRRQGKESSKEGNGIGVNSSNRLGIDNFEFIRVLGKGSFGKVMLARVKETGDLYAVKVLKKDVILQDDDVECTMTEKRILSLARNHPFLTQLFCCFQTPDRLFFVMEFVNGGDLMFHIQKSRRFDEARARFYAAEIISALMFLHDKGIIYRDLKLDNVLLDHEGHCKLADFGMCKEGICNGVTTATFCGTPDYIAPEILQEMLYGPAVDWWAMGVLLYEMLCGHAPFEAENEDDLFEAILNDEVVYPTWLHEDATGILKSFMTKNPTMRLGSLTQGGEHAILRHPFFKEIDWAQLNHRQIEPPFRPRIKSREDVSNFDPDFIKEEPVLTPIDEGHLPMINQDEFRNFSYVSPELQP
Sequence of DCLK3 (human) (Q9C098 whole entry, looked up): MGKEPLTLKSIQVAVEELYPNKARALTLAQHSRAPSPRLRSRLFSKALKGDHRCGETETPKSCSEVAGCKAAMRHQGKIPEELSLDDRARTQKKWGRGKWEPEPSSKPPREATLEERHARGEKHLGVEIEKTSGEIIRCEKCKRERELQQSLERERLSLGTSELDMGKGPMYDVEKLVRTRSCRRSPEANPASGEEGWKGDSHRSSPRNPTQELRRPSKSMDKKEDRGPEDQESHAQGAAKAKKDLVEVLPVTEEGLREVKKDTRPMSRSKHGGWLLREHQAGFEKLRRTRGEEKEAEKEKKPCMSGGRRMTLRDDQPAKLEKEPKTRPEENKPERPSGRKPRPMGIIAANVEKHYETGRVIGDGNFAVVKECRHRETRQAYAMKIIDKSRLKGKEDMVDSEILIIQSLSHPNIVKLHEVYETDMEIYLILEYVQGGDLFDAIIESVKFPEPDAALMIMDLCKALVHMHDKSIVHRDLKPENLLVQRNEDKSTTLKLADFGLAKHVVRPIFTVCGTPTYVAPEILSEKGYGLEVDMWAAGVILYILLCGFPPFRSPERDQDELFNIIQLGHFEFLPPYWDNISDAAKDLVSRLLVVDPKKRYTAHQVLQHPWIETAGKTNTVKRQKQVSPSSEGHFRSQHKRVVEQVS
Sequence of JAK1 JH2 pseudokinase (human) (P23458 whole entry, looked up): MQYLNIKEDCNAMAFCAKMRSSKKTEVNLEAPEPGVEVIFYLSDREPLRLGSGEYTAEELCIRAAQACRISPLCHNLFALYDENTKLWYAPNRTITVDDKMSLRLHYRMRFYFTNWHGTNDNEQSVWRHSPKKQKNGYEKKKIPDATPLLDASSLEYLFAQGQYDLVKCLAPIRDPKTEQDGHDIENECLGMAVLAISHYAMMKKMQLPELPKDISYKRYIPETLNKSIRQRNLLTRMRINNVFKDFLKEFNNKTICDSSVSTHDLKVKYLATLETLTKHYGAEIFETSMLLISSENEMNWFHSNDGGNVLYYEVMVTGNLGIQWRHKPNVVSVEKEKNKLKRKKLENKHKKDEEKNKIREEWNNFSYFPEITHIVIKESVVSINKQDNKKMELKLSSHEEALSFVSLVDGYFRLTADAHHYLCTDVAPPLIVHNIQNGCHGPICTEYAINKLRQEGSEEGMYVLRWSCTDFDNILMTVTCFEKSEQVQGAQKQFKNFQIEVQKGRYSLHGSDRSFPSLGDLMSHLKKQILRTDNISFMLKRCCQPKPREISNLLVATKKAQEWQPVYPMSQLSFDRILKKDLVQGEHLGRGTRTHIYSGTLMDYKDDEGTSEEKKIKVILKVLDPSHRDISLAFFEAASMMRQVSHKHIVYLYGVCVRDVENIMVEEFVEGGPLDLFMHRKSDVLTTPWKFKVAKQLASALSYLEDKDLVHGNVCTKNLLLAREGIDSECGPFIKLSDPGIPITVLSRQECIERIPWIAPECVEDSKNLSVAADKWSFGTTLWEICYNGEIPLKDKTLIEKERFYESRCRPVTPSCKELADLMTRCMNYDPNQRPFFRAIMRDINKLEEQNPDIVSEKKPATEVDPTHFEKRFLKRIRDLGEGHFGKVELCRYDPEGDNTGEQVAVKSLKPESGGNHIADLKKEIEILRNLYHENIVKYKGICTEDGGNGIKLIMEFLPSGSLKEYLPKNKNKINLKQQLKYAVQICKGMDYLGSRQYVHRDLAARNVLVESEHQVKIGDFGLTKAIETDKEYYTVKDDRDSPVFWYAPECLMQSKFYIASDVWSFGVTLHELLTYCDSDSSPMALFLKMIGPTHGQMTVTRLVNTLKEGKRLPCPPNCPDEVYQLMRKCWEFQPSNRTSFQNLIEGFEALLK
Sequence of MAPKAPK5 (human) (Q8IW41 whole entry, looked up): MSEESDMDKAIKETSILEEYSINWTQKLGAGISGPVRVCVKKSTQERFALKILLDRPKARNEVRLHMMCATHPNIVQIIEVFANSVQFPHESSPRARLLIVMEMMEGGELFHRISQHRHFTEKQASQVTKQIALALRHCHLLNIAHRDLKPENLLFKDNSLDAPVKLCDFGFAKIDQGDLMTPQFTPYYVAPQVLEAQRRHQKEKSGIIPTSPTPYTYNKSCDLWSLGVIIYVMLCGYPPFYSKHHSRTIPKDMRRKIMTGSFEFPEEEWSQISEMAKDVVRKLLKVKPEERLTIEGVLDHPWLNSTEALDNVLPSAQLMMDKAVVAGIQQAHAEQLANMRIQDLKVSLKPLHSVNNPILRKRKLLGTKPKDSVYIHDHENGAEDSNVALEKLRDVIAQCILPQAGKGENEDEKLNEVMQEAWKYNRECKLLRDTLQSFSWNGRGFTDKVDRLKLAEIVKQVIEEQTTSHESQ
Sequence of CDK8 (human) (P49336 whole entry, looked up): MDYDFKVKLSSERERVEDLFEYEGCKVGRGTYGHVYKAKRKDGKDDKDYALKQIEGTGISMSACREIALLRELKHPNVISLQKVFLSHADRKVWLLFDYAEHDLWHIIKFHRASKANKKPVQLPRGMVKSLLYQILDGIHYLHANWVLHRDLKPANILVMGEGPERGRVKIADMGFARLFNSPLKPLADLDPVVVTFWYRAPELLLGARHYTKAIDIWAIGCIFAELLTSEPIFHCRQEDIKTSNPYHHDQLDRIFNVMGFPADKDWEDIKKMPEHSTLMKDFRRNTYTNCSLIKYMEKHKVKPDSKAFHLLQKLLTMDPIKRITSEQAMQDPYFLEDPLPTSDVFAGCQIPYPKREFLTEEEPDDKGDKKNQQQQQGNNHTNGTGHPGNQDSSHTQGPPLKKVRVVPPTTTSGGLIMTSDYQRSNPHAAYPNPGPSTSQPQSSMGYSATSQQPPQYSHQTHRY
Sequence of RET (human), P07949 [V804L] (P07949 whole entry V804L, looked up): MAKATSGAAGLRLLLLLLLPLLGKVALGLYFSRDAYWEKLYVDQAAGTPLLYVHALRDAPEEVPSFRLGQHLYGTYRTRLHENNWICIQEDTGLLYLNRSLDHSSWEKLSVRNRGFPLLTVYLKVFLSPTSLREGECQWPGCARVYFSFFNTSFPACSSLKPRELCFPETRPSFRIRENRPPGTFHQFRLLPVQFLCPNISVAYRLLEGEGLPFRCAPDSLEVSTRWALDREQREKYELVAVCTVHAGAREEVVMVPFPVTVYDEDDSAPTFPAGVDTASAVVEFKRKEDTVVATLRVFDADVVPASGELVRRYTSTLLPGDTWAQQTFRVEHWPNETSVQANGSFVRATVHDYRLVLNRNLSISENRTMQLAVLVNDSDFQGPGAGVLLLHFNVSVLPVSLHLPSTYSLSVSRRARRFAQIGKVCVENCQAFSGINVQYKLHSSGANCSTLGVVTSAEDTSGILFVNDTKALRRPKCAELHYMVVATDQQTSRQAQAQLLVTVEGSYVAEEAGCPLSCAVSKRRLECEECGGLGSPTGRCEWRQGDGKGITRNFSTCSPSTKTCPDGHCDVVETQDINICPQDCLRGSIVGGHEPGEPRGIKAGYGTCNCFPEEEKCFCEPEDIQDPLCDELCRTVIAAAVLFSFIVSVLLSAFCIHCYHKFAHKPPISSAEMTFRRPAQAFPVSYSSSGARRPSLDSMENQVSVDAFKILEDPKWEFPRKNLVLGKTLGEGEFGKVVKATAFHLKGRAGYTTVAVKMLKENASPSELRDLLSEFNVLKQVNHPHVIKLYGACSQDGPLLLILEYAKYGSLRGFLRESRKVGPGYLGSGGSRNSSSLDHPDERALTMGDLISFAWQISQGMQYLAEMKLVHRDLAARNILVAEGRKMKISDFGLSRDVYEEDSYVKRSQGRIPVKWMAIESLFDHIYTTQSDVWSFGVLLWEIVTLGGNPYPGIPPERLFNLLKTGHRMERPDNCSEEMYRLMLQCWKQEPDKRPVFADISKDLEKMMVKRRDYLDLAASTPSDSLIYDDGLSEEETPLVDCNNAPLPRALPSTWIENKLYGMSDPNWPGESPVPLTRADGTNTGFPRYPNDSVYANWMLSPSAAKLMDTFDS
Sequence of RIOK3 (human) (O14730 whole entry, looked up): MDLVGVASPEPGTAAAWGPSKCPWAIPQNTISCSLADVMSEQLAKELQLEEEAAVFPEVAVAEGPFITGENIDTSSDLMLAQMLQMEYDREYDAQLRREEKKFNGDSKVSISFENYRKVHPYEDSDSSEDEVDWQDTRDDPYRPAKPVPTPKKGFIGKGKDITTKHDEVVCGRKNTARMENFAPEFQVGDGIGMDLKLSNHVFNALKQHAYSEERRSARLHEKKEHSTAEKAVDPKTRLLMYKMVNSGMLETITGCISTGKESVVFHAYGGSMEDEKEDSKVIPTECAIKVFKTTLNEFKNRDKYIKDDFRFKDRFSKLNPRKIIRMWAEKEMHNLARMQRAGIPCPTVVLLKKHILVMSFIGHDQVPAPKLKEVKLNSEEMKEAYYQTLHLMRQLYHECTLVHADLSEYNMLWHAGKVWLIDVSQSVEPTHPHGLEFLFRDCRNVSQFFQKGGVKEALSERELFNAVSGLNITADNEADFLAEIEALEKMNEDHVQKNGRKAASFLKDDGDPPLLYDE

Compound: CNc1nc(Nc2ccc(C(=O)N3CCOCC3)cc2OC)ncc1Cl
- kinase still bound, per cent of control [1]: 52%
- kinase still bound, per cent of control (ACVR1 (human)): 95%
- kinase still bound, per cent of control (ACVRL1 (human)): 100%
- kinase still bound, per cent of control (BTK (human)): 100%
- kinase still bound, per cent of control (CAMK2D (human)): 87%
- kinase still bound, per cent of control (CDC42BPA (human)): 97%
- residual activity (CDK7 (human)): 57%
- residual activity (CDK8 (human)): 100%
- kinase still bound, per cent of control (CLK2 (human)): 84%
- kinase still bound, per cent of control (CRK2 (P.falciparum)): 100%
- kinase still bound, per cent of control (DCLK3 (human)): 100%
- kinase still bound, per cent of control [2]: 87%
- kinase still bound, per cent of control (HIPK1 (human)): 79%
- kinase still bound, per cent of control (IRAK4 (human)): 100%
- kinase still bound, per cent of control [3]: 90%
- kinase still bound, per cent of control [4]: 100%
- kinase still bound, per cent of control [5]: 18%
- kinase still bound, per cent of control (MAP3K4 (human)): 100%
- kinase still bound, per cent of control (MAP3K6 (human)): 100%
- kinase still bound, per cent of control (MAPK11 (human)): 100%
- kinase still bound, per cent of control (MAPK15 (human)): 100%
- kinase still bound, per cent of control (MAPK7 (human)): 98%
- kinase still bound, per cent of control (MAPKAPK5 (human)): 100%
- kinase still bound, per cent of control (MTOR (human)): 100%
- kinase still bound, per cent of control (NEK3 (human)): 100%
- kinase still bound, per cent of control (PIK3CA (human)): 100%
- kinase still bound, per cent of control [6]: 100%
- kinase still bound, per cent of control (PIP5K1C (human)): 99%
- kinase still bound, per cent of control (PLK1 (human)): 100%
- kinase still bound, per cent of control (PLK3 (human)): 100%
- kinase still bound, per cent of control (PRKCH (human)): 100%
- kinase still bound, per cent of control [7]: 99%
- kinase still bound, per cent of control (RIOK3 (human)): 87%
- kinase still bound, per cent of control (RIPK1 (human)): 100%
- kinase still bound, per cent of control (RPS6KA5 KD1 (human)): 100%
- kinase still bound, per cent of control (RPS6KA6 KD1 (human)): 100%
- kinase still bound, per cent of control (SIK2 (human)): 100%
- kinase still bound, per cent of control (SRMS (human)): 100%
- kinase still bound, per cent of control (TGFBR2 (human)): 100%
